Tests used:
[1] = system: primary cultures of rat cerebellum neurones; assay: Neuroprotection of primary cultures of rat cerebellar neurones against excitotoxic aggression (L-glutamate/glycine); assay type: cell-based; conditions: for decrease of neuronal death: rat cerebellar neurones, 10 μM glycine, prolonged (≧3 h) L-glutamate, read 24 hours post-aggression; for neuroprotector activity (enantiomers versus racemic mixture): primary cultures of cerebellar neurons, L-glutamate 1 mM
From the text: The neuroprotector mechanism implies, at least in part, the blocking of the glutamate ionotropic receptors, as is made manifest by the inhibition of the ionic current activated by the NMDA type of glutamatergic receptor agonist expressed in X. laevis ovocites (19,20). An important advantage of these biological tests is that they permit the search for neuroprotectors in functionally active systems, increasing the potentiality of its in vivo use.
Two complementary biological tests were used in order to evaluate the biological activity of the N-alkylglycine trimeres obtained in Example 1.1. The first evaluates the efficiency and power with which said compounds block the ionic current activated by agonists in X. laevis ovocites that express the NMDA receptor. The second, determines the neuroprotector efficiency of the N-alklyglycine trimeres in primary cultures of neurones subjected to an excitotoxic aggression, such as prolonged exposure to L-glutamate and glycine.
It was also observed that the N-alkylglycine trimeres tested protected primary neuronal cultures coming from the cerebellum of rats pre-exposed to 10 μM glycine versus the prolonged exposure (≧3 h) of L-glutamate or N-methyl-D-aspartate at a concentration of […]. The test consists of extracting the cerebellar neurones of baby rats, 7–8 days old, cultivating them in plates in a culture medium supplemented with bovine foetal serum (22). After 13–19 days under culture, the excitotoxic aggression with L-glutamate is performed, monitoring the neuronal death in the absence and presence of the N-alkylglycine trimeres 24 hours post-aggression using two fluorescent dyes: the fluorescent diacetate that indicates the number of viable cells, and the propydium iodine that informs of the number of dead cells (23). As an example, the N-alkylglycine trimere identified as compound [1] decreased a 95% of the neuronal death at a concentration of 30 μg/ml; compound [5] an 85% at 30 μg/ml; compound [23a] a 57% at a concentration of 50 μg/ml, and compound [24] a 60% at 50 μg/ml.
On the other hand, due to the fact that some formula I N-alkylglycine trimeres may be presented as stereoisomers, the possibility that the neuroprotector activity of the racemic mixture preferably corresponded to one of the isomers, was evaluated. For this, the neuroprotector activity of the enantiomers identified as [23b] and [23c] was evaluated, (see Table 1) in primary cultures of cerebellar neurons exposed to excitotoxic aggression, such as the incubation with L-glutamate 1 mM comparing it with the neuroprotector activity of a racemic mixture of said enantiomers. […] Likewise, said power was similar to the one presented by the racemic mixture.

[2] = system: ammonium-induced neurotoxicity in mice; assay: Neurotoxicity model in mice induced by injection of high doses of ammonium (death due to NMDA receptor hyperactivation); assay type: in vivo; conditions: 0.05–0.1 mg/g intraperitoneal, 10 minutes before 12 mmol/kg ammonium acetate; 24 hours post-injection
Protocol: A neurotoxicity model was used on mice induced by the injection of high doses of ammonium, the result of which is the death of the animal due to the hyperactivation of the NMDA receptor. The test consists in the intraperitoneal injection in mice of an amount of N-alkylglycine trimere of 0.05–0.1 mg/g, followed, after 10 minutes, with an injection of 12 mmol/kg of ammonium acetate. After 24 hours post-injection, the number of dead mice was determined. The N-alkylglycine trimere identified as compound [24] protected 82% of the mice, whilst the N-alkylglycine trimere identified as compound [23a] protected 100% of the animals.

| SMILES | neuroprotector activity (enantiomers versus racemic mixture) [1] | decrease of neuronal death ([1]; 30 μg/ml) [%] | further results |
| --- | --- | --- | --- |
| CCC(C)N(CC(N)=O)C(=O)CN(C(=O)CNCCN1CCCC1)C1CC1 (racemic) [compound [23a], [N-[2-(N-pyrrolidinyl)ethyl]glycyl]-[N-(cyclopropyl)glycyl]-N-((R,S)-sec-butyl)glycinamide] | – | – | decrease of neuronal death ([1]; 50 μg/ml): 57%; mice protected from death [2]: 100% |
| CC[C@@H](C)NC(=O)CN(C(=O)CNCCN1CCCC1)C(=O)CNC1CC1 [[23b], [N-[2-(N-pyrrolidinyl)ethyl]glycyl]-[N-(cyclopropyl)glycyl]-N-((R)-sec-butyl)glycinamide] | neuroprotectors with equal power | – | – |
| CC[C@H](C)NC(=O)CN(C(=O)CNCCN1CCCC1)C(=O)CNC1CC1 [[23c], [N-[2-(N-pyrrolidinyl)ethyl]glycyl]-[N-(cyclopropyl)glycyl]-N-((S)-sec-butyl)glycinamide] | neuroprotectors with equal power | – | – |
| CCN(CC)CCCN(CC(=O)N(CCNC(C)=O)CC(N)=O)C(=O)CNCCC(c1ccccc1)c1ccccc1 [compound [1]] [[N-[3,3-diphenylpropyl]glycyl]-[N-[3-(N,N-diethylamine)propyl]glycyl]-N-[2-(methylcarbonylamine)ethyl]glycinamide] | – | 95 | – |
| CCN(CC)CCCN(CC(=O)N(CCNC(C)=O)CC(N)=O)C(=O)CNCCC(c1ccccc1)c1ccccc1 [compound [5]] [[N-[3,3-diphenylpropyl]glycyl]-[N-[3-N,N-diethylamine)propyl]glycyl]-N-[2-(methylcarbonylamine)ethyl]glycinamide] | – | 85 | – |

Source: patent US6992064B2, “N-alkylglycine trimeres capable of protecting neurons against excitotoxic aggressions and compositions containing such trimeres” (Diverdrugs, S.L., priority 2000, dated 2006)
